# Source: PubChem BioAssay AID330 (DTP/NCI, 2004)
# Values joined by “and” are separate entries in the source; they are usually repeats but may differ in a detail not shown here. Equal values may be shown once. Inconclusive results and toxic doses are left out.
# System: P388 leukemia ip, CD2F1 mice, survival T/C
# Test: NCI In Vivo Anticancer Drug Screen. Data for tumor model P388 Leukemia (intraperitoneal) in CD2F1 (CDF1) mice
# Settings: endpoint: median survival time, higher = longer survival
# Method in brief: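 Mice carrying the transplanted tumor received test compound or vehicle. Survival was recorded in each group, and the value is the treated-group measurement divided by that of the vehicle-treated control group.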
# [1] = dose: 50.0 mg/kg/injection, schedule: Q01DX009 (ip), vehicle: Klucel (hydroxypropylcellulose) (HPC)
# [2] = dose: 100.0 mg/kg/injection, schedule: Q01DX009 (ip), vehicle: Klucel (hydroxypropylcellulose) (HPC)
# [3] = dose: 50.0 mg/kg/injection, schedule: Q01DX009 (ip), vehicle: saline
# [4] = dose: 100.0 mg/kg/injection, schedule: Q01DX009 (ip), vehicle: saline
# [5] = dose: 200.0 mg/kg/injection, schedule: Q01DX009 (ip), vehicle: saline
smiles,measurement,setting,value
COc1ccc(C[Se][Se]Cc2ccc(OC)cc2)cc1,T/C,"dose: 6.25 mg/kg/injection, schedule: Q01DX009 (ip), vehicle: Klucel (hydroxypropylcellulose) (HPC)",99 % of control
same,T/C,"dose: 12.5 mg/kg/injection, schedule: Q01DX009 (ip), vehicle: Klucel (hydroxypropylcellulose) (HPC)",108 % of control
same,T/C,"dose: 25.0 mg/kg/injection, schedule: Q01DX009 (ip), vehicle: Klucel (hydroxypropylcellulose) (HPC)",106 % of control
O=C1NC2CCCC1C(c1ccccc1)NC2c1ccccc1 (configuration not stated),T/C,"dose: 100.0 mg/kg/injection, schedule: Q04DX003 (ip), vehicle: suspension in saline",98 % of control
same,T/C,"dose: 200.0 mg/kg/injection, schedule: Q04DX003 (ip), vehicle: suspension in saline",99 % of control
same,T/C,"dose: 400.0 mg/kg/injection, schedule: Q04DX003 (ip), vehicle: suspension in saline",100 % of control
CCOC(=O)Cn1nc(-c2ccccc2)c(-c2ccccc2)c(C#N)c1=O,T/C,"dose: 25.0 mg/kg/injection, schedule: Q04DX002 (ip), vehicle: distilled water + Tween-80",95 % of control
same,T/C,"dose: 50.0 mg/kg/injection, schedule: Q04DX002 (ip), vehicle: distilled water + Tween-80",107 % of control
same,T/C,"dose: 100.0 mg/kg/injection, schedule: Q04DX002 (ip), vehicle: distilled water + Tween-80",98 % of control
same,T/C,"dose: 200.0 mg/kg/injection, schedule: Q04DX002 (ip), vehicle: distilled water + Tween-80",92 % of control
CCCNC(C)(C)C(SS)c1ccc(C(F)(F)F)cc1 (configuration not stated),T/C,"dose: 12.5 mg/kg/injection, schedule: Q01DX009 (ip), vehicle: other",100 % of control
same,T/C,"dose: 25.0 mg/kg/injection, schedule: Q01DX009 (ip), vehicle: other",100 % of control
same,T/C,"dose: 50.0 mg/kg/injection, schedule: Q01DX009 (ip), vehicle: other",109 % of control
O=C(/C=C/c1ccc(Cl)c(Cl)c1)C1CCCCC1,T/C,[1],103 % of control
same,T/C,[2],99 % of control
C#CC(CC)(CC)N=Cc1cc(Cl)cc(Cl)c1O,T/C,"dose: 50.0 mg/kg/injection, schedule: Q01DX009 (ip), vehicle: saline with Tween-80",98 % of control
same,T/C,"dose: 100.0 mg/kg/injection, schedule: Q01DX009 (ip), vehicle: saline with Tween-80",94 % of control
same,T/C,"dose: 200.0 mg/kg/injection, schedule: Q01DX009 (ip), vehicle: saline with Tween-80",96 % of control
COc1ccc2nc(C)c3c(c2c1)C(=O)N(CCC[N+]1([O-])CC[N+]([O-])(CCCN2C(=O)c4c(c5cc(OC)ccc5[n+]([O-])c4C)C2=O)CC1)C3=O (configuration not stated),T/C,"dose: 60.0 mg/kg/injection, schedule: Q01DX005 (ip), vehicle: saline with Tween-80",87 % of control
same,T/C,"dose: 120.0 mg/kg/injection, schedule: Q01DX005 (ip), vehicle: saline with Tween-80",89 % of control
same,T/C,"dose: 240.0 mg/kg/injection, schedule: Q01DX005 (ip), vehicle: saline with Tween-80",92 % of control
O=C(O)c1ccccc1Oc1ccccc1C(=O)O,T/C,"dose: 100.0 mg/kg/injection, schedule: Q04DX003 (ip), vehicle: saline",100 % of control
same,T/C,"dose: 200.0 mg/kg/injection, schedule: Q04DX003 (ip), vehicle: saline",100 % of control
same,T/C,"dose: 400.0 mg/kg/injection, schedule: Q04DX003 (ip), vehicle: saline",100 % of control
COc1cccc2c1C(=O)c1c(O)c3c(c(O)c1C2=O)C[C@@](O)(C(C)NCCCO)C[C@@H]3OC1CC(N)C(O)C(C)O1 (some centres not stated),T/C,"dose: 0.5 mg/kg/injection, schedule: Q01DX009 (ip), vehicle: water",122 % of control
same,T/C,"dose: 1.0 mg/kg/injection, schedule: Q01DX009 (ip), vehicle: water",150 % of control
same,T/C,"dose: 2.0 mg/kg/injection, schedule: Q01DX009 (ip), vehicle: water",154 % of control and 163 % of control
same,T/C,"dose: 4.0 mg/kg/injection, schedule: Q01DX009 (ip), vehicle: water",163 % of control and 173 % of control
same,T/C,"dose: 8.0 mg/kg/injection, schedule: Q01DX009 (ip), vehicle: water",174 % of control and 175 % of control
same,T/C,"dose: 16.0 mg/kg/injection, schedule: Q01DX009 (ip), vehicle: water",201 % of control
CNC(=S)N=Nc1c(O)[nH]c2ccccc12,T/C,[3],91 % of control
same,T/C,[4],99 % of control
same,T/C,[5],91 % of control
C1=CNc2ccccc2N=C1,T/C,[3],103 % of control
same,T/C,[4],112 % of control
same,T/C,[5],99 % of control
C/C(=N\NC(=S)N1CCCCCC1)c1ccc[nH]1,T/C,"dose: 100.0 mg/kg/injection, schedule: Q04DX002 (ip), vehicle: Klucel (hydroxypropylcellulose) (HPC)",111 % of control
same,T/C,"dose: 200.0 mg/kg/injection, schedule: Q04DX002 (ip), vehicle: Klucel (hydroxypropylcellulose) (HPC)",102 % of control
same,T/C,"dose: 400.0 mg/kg/injection, schedule: Q04DX002 (ip), vehicle: Klucel (hydroxypropylcellulose) (HPC)",107 % of control
CCOC(=O)c1ccc(NC(=S)P(=O)(c2ccccc2)c2ccccc2)cc1,T/C,[1],88 % of control
same,T/C,[2],89 % of control
same,T/C,"dose: 200.0 mg/kg/injection, schedule: Q01DX009 (ip), vehicle: Klucel (hydroxypropylcellulose) (HPC)",94 % of control
